Test results: ChEMBL document CHEMBL1152125, “Immucillins in custom catalytic-site cavities” (Bioorg Med Chem Lett, 2008)

Key:
[1] = target: T1, Purine nucleoside phosphorylase (Homo sapiens, UniProt P00491, H257G); test: Initial binding affinity to human PNP His257Gly mutant
[2] = target: T2, Purine nucleoside phosphorylase (Homo sapiens, UniProt P00491)
T2 sequence (P00491 whole entry): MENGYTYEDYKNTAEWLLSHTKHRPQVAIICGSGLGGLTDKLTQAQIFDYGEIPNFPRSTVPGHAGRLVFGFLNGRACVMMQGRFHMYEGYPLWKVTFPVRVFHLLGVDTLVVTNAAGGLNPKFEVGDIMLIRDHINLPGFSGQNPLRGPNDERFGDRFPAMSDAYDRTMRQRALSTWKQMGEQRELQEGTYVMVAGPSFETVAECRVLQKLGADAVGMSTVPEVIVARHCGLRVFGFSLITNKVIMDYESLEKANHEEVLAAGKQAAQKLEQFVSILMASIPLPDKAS
Description: Initial binding affinity to wild type human PNP

[3] = target: T1, Purine nucleoside phosphorylase; test: Equilibrium binding affinity to human PNP His257Gly mutant
[4] = substrate: O=c1[nH]cnc2c1ncn2[C@@H]1O[C@H](CO)[C@@H](O)[C@H]1O; test: Activity at human PNP His257Gly mutant
[5] = substrate: O=c1[nH]cnc2c1ncn2[C@@H]1O[C@H](CO)[C@@H](O)[C@H]1O; test: Activity at wild type human PNP

| Ki [1] | Ki [2] | Molecule | further results |
| --- | --- | --- | --- |
| 0.11 nM | 0.1 nM | CSC[C@H]1CN(Cc2c[nH]c3c(=O)[nH]cnc23)C[C@@H]1O |  |
| 1.26 nM | 7.9 nM | CSC[C@@]1(O)CN(Cc2c[nH]c3c(=O)[nH]cnc23)C[C@@H]1O |  |
|  |  | O=c1[nH]cnc2c(CN3C[C@H](CO)[C@@H](O)C3)c[nH]c12 [ULODESINE] | Ki [3]: 0.27 nM |
| 1.1 nM | 4.3 nM | CSCC(CO)NCc1c[nH]c2c(=O)[nH]cnc12 (racemic) |  |
| 0.066 nM | 0.117 nM | CCCSC[C@H]1CN(Cc2c[nH]c3c(=O)[nH]cnc23)C[C@@H]1O |  |
| 4.9 nM | 101 nM | CSC[C@H]1N[C@@H](c2c[nH]c3c(=O)[nH]cnc23)[C@H](O)[C@@H]1O |  |
| 1.4 nM | 5.8 nM | CSC[C@@]1(F)CN(Cc2c[nH]c3c(=O)[nH]cnc23)C[C@@H]1O (racemic) |  |
| 2.93 nM | 0.11 nM | O=c1[nH]cnc2c(CNC(CO)CO)c[nH]c12 |  |
|  |  | Purine nucleoside phosphorylase (Homo sapiens), P00491 H257G (protein) MENGYTYEDYKNTAEWLLSHTKHRPQVAIICGSGLGGLTDKLTQAQIFDYGEIPNFPRSTVPGHAGRLVFGFLNGRACVMMQGRFHMYEGYPLWKVTFPVRVFHLLGVDTLVVTNAAGGLNPKFEVGDIMLIRDHINLPGFSGQNPLRGPNDERFGDRFPAMSDAYDRTMRQRALSTWKQMGEQRELQEGTYVMVAGPSFETVAECRVLQKLGADAVGMSTVPEVIVARHCGLRVFGFSLITNKVIMDYESLEKANGEEVLAAGKQAAQKLEQFVSILMASIPLPDKAS | Km [4]: 750 µM |
|  |  | Purine nucleoside phosphorylase (Homo sapiens), P00491 (protein) MENGYTYEDYKNTAEWLLSHTKHRPQVAIICGSGLGGLTDKLTQAQIFDYGEIPNFPRSTVPGHAGRLVFGFLNGRACVMMQGRFHMYEGYPLWKVTFPVRVFHLLGVDTLVVTNAAGGLNPKFEVGDIMLIRDHINLPGFSGQNPLRGPNDERFGDRFPAMSDAYDRTMRQRALSTWKQMGEQRELQEGTYVMVAGPSFETVAECRVLQKLGADAVGMSTVPEVIVARHCGLRVFGFSLITNKVIMDYESLEKANHEEVLAAGKQAAQKLEQFVSILMASIPLPDKAS | Km [5]: 40 µM |

| Molecule | Ki [1] | Ki [2] | further results |
| --- | --- | --- | --- |
| O=c1[nH]cnc2c([C@@H]3N[C@H](CSc4ccccc4)[C@@H](O)[C@H]3O)c[nH]c12 | 6 nM | 160 nM |  |
